Laboratory results reported in PMC9189931 (Nature chemical biology, 2021).
“Also recorded” adds a separate entry of the source. One block for each compound: values may come before it. Numbered stars: 1 amine (or outer) side, 2 acyl side, 3 side chain; on linkers, the order of the positions; unused ones are H or OH. Bridge positions count the residues as written; N and C are the ends. Square brackets hold non-standard residues; d marks the D form. Peptide text beside a SMILES is read from it. I, II: the chains in the order shown. Actinocin(9to1) = Cc1c2oc3c(C)ccc(C(=O)[*:1])c3nc-2c(C(=O)[*:2])c(N)c1=O; NMeV = CN[C@H](C(=O)O)C(C)C; Sar = CNCC(=O)O

Experiments:
[1] = tested on: adherent or hematopoietic malignancy cell lines; experiment: Cytotoxicity profiling; assay type: cell-based; settings: up to 5 μM over 3–12 d
[2] = tested on: global H3K36 methylation in KMS-11 cells; experiment: Western blotting for global H3K36 methylation; assay type: cell-based; settings: 72 h
[3] = tested on: endogenous NSD2 localization in U2OS cells; experiment: Confocal microscopy of endogenous NSD2 nucleolar localization; assay type: cell-based; settings: 4 h; for steady-state pool of nucleolar NSD2 under nucleolar perturbation: actinomycin D 50 nM, doxorubicin 1 μM
[4] = tested on: ribosomal RNA (rRNA) transcription; experiment: rRNA transcription; settings: for pre-rRNA expression levels by RT-qPCR: 5 μM compound at 2, 4, or 16 hours
[5] = target: T1, NSD2-PWWP1 interaction with nucleosomal H3K36me2 (Homo sapiens, UniProt O96028); experiment: AlphaScreen; assay type: binding
T1 sequence (O96028 208-368): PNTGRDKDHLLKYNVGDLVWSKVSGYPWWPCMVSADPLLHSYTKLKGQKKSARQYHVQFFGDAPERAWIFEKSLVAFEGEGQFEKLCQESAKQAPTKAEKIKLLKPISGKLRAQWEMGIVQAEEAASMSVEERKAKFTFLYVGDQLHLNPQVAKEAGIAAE

[6] = tested on: 15 other human PWWP domains; settings: DSF, 100 μM compound
[7] = target: T2, fl-NSD2 interaction with nucleosomal H3K36me2 (Homo sapiens, UniProt O96028); experiment: AlphaScreen; assay type: binding; settings: read-out: IC50, disengagement of fl-NSD2 from nucleosomal H3K36me2, in the presence of SSD (2 μg ml^−1)
T2 sequence (O96028 1-1365): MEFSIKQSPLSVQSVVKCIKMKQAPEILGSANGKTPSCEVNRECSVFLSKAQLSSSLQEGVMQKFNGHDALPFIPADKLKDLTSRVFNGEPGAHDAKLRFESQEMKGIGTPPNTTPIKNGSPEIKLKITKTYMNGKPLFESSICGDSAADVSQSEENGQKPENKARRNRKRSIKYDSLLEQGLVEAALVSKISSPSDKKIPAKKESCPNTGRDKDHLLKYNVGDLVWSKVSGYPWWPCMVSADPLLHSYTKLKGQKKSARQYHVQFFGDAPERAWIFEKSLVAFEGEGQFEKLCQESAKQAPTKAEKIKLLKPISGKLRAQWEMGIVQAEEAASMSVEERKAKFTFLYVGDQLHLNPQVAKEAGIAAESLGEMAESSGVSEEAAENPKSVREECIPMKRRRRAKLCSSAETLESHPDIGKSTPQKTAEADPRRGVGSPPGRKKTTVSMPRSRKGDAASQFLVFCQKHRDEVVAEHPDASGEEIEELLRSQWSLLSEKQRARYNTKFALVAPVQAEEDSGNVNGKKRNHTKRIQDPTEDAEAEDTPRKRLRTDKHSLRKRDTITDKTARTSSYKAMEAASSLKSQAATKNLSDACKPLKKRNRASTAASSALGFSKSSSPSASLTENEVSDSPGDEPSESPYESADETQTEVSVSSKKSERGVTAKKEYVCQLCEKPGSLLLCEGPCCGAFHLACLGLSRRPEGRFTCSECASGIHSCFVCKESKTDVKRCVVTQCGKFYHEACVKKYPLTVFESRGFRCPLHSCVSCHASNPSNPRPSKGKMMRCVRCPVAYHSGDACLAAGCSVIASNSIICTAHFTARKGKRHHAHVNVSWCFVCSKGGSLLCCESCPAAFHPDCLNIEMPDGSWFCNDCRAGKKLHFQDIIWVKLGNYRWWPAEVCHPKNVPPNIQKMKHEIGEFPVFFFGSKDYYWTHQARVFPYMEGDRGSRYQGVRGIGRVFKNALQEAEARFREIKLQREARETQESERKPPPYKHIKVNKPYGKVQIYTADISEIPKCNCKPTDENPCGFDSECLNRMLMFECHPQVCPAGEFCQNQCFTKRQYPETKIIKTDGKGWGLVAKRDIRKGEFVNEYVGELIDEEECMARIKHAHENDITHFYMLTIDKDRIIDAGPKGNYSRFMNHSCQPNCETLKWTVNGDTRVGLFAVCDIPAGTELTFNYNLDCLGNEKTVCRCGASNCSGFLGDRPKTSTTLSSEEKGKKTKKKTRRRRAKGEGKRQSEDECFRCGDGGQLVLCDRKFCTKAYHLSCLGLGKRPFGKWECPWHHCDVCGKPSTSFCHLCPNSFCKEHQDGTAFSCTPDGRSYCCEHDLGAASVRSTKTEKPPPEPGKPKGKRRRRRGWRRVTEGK

endogenous NSD2 = target: T3, endogenous NSD2 (Homo sapiens, UniProt O96028); experiment: UNC7096 chemical pulldown and chemical proteomics in KMS-11 whole-cell lysates; assay type: binding
T3 sequence (O96028 1-627 limits assumed): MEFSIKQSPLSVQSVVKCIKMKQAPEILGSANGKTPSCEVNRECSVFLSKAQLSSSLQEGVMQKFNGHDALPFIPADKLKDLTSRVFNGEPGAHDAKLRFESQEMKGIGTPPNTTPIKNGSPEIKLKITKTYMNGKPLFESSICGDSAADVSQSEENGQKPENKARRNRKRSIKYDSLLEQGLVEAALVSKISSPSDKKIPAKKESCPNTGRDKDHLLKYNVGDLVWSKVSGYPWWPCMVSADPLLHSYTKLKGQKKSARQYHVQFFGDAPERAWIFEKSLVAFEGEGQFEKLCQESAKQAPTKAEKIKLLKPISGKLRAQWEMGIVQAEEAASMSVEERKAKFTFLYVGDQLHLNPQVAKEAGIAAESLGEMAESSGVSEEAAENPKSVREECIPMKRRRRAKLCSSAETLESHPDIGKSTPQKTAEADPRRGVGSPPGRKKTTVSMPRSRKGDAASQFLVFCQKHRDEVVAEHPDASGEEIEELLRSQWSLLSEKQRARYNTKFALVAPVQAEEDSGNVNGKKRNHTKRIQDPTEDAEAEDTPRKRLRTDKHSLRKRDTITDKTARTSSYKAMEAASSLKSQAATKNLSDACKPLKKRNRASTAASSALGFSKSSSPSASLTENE

[8] = target: T4, dsDNA binding to NSD2-PWWP1 (Homo sapiens, UniProt O96028); experiment: Fluorescence polarization DNA binding and displacement assay; settings: FP
T4 sequence (O96028 208-368): T1 sequence (O96028 208-368)

[9] = tested on: panel of 33 methyltransferase domains, including NSD1, NSD2, NSD3 and SETD2; experiment: Methyltransferase selectivity panel; assay type: biochemical; settings: 1 and 10 μM compound
[10] = tested on: fl-NSD2 chromatin association in KMS-11 cells; experiment: Cell fractionation, NSD2 release from chromatin; assay type: cell-based; settings: KMS-11 cell fractionation, 10 μM compound
KMS-11 t(4; 14) MM cells = experiment: Proliferation of KMS-11 cocultured with OP9 bone marrow stromal cells; assay type: cell-based; settings: 5 μM for 10 d before seeding on OP9
[11] = target: human sodium-dependent serotonin transporter (Homo sapiens, UniProt P31645); experiment: NIMH PDSP panel of CNS receptors, channels and transporters; assay type: binding
human sodium-dependent serotonin transporter, sequence (P31645 whole entry): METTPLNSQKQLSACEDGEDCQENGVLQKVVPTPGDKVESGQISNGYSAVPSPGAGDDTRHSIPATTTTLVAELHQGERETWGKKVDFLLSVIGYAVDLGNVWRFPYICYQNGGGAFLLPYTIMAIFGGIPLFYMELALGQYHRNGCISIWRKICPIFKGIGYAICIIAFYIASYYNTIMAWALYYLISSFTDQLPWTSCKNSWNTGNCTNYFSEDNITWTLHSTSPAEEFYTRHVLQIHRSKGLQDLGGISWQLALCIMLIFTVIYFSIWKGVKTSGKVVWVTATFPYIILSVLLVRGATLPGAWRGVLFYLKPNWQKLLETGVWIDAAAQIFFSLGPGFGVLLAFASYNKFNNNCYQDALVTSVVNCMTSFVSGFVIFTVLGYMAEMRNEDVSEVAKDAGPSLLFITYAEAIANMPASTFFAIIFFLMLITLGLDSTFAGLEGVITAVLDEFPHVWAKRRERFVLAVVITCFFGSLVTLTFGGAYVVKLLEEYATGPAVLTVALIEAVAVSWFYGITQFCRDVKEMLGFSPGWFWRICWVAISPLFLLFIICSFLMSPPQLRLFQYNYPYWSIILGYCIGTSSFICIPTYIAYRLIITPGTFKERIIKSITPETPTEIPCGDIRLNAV

[12] = tested on: mRNA levels of NSD2 target genes in KMS-11 cells; experiment: RT-qPCR of NSD2 target genes; assay type: cell-based; settings: 5 μM, 72 h
[13] = target: T5, NSD3-PWWP1 interaction with histone H3.3 (Homo sapiens, UniProt Q9BZ95); experiment: NanoBRET PPI assay, NSD3-PWWP1; assay type: cell-based; settings: U2OS cells, 10 μM compound
T5 sequence (Q9BZ95 270-333 limits assumed): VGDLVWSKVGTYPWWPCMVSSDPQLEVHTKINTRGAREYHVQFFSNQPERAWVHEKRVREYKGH

[14] = tested on: NSD2-GFP localization in U2OS cells; experiment: Nucleolar colocalization of GFP-tagged NSD2 WT and mutants with RFP-fibrillarin; assay type: cell-based; settings: 4 h, 5 μM compound
[15] = tested on: loci-specific H3K36me2 levels in KMS-11 cells; experiment: H3K36me2 ChIP-qPCR; assay type: cell-based; settings: 5 μM, 72 h
NSD2-PWWP1 = target: T6, NSD2-PWWP1 (Homo sapiens, UniProt O96028); experiment: SPR binding to immobilized NSD2-PWWP1
T6 sequence (O96028 208-368): T1 sequence (O96028 208-368)

Compound: CC(C)N(Cc1ccc(C(=O)Nc2ccncn2)cc1)C(=O)c1ccc2c(c1)OCC(=O)N2 [UNC7145]
acute cytotoxic effects [1]: no acute cytotoxic effects
global H3K36 methylation [2]: no significant change
NSD2 signal within nucleoli ([3]; 5 μM compound): no effect
pre-rRNA expression levels by RT-qPCR [4]: no major effect
IC50, disruption of NSD2-PWWP1 interaction with nucleosomal H3K36me2 [5]: no measurable effect
selectivity over other PWWP domains [6]: inactive
IC50 [7]: 5100 ± 1000 nM
proteins depleted from UNC7096 pulldown by competition (endogenous NSD2; label-free proteomics, 20 μM compound, relative to DMSO): did not considerably alter the enrichment profile
pattern of dsDNA binding to NSD2-PWWP1 in the presence of compound ([8]; 20 μM compound, NSD2-PWWP1 up to 2.5 μM): No significant difference
displacement of fluorescein-labelled dsDNA from NSD2-PWWP1 ([8]; compound up to 25 μM): no significant effect
inhibition of methyltransferases [9]: inactive

Compound: COc1cccc2c1C(=O)c1c(O)c3c(c(O)c1C2=O)C[C@@](O)(C(=O)CO)C[C@@H]3O[C@H]1C[C@H](N)[C@H](O)[C@H](C)O1 [doxorubicin, reference compound]
steady-state pool of nucleolar NSD2 under nucleolar perturbation [3]: sensitive

Compound: O=C1COc2cc(C(=O)N(Cc3ccc(C(=O)Nc4ccncn4)cc3)C3CC3)ccc2N1 [UNC6934]
release of fl-NSD2 from chromatin [10]: modest release
acute cytotoxic effects [1]: no acute cytotoxic effects
global H3K36 methylation [2]: no significant change; also recorded: no changes
proliferation of KMS-11 cells grown on bone marrow stroma (KMS-11 t(4; 14) MM cells): no changes
NSD2 signal within nucleoli ([3]; 5 μM compound): increase in NSD2 signal within nucleoli
correlation (PCC) between NSD2 and fibrillarin signals ([3]; 5 μM compound): significant increase
Ki [11]: 1400 ± 800 nM
inhibition at 10 µM [11]: > 50%
effect on ribosomal RNA (rRNA) transcription ([4]; 5 μM compound): no significant effect
pre-rRNA expression levels by RT-qPCR [4]: no major effect
mRNA levels of NSD2 target genes [12]: did not observe changes
BRET signal of NSD3-PWWP1 [13]: unaffected
nucleolar localization of PWWP1 aromatic cage mutant NSD2-GFP [14]: no further increase
nucleolar signal of WT NSD2-GFP [14]: increase in nucleolar signal
nucleolar colocalization of PHD2 and PWWP2 mutant NSD2-GFP ([14]; H762R, W894A): additive effect
inhibition of methyltransferases [9]: did not inhibit any
loci-specific H3K36me2 levels [15]: did not observe changes

Compound: Cc1c2oc3c(C)ccc(C(=O)N[C@@H]4C(=O)N[C@H](C(C)C)C(=O)N5CCC[C@H]5C(=O)N(C)CC(=O)N(C)[C@@H](C(C)C)C(=O)O[C@@H]4C)c3nc-2c(C(=O)N[C@@H]2C(=O)N[C@H](C(C)C)C(=O)N3CCC[C@H]3C(=O)N(C)CC(=O)N(C)[C@@H](C(C)C)C(=O)O[C@@H]2C)c(N)c1=O [actinomycin D, reference compound] (I: T[dV]P[Sar][NMeV] / II: T[dV]P[Sar][NMeV]; ester I:1-I:C, II:1-II:C; linker I:N-II:N via Actinocin(9to1))
steady-state pool of nucleolar NSD2 under nucleolar perturbation [3]: sensitive

Kd (NSD2-PWWP1): 349 ± 19 nM
Compound: O=C1COc2cc(C(=O)N(Cc3cccs3)C3CC3)ccc2N1 [MRT866]

Compound: O=C(CCCC[C@@H]1SC[C@@H]2NC(=O)N[C@@H]21)NCCOCCOCCOCCOCCOCCOCCOCCOCCOCCOCCOCCNC(=O)c1ccc(NC(=O)c2ccc(CN(C(=O)c3ccc4c(c3)OCC(=O)N4)C3CC3)cc2)cc1 [UNC7096]
Kd (NSD2-PWWP1): 46 nM
enrichment of NSD2-short and NSD2-long isoforms by pulldown (endogenous NSD2; KMS-11 whole-cell lysates, immunoblotting): efficiently enriched
